Results published in US12433885B2, “Procaspase combination therapy for glioblastoma” (THE BOARD OF TRUSTEES OF THE UNIVERSITY OF ILLINOIS, priority 2012, dated 2025).

Experiments:
9 L (rat glioma) cells = experiment: 9 L intracranial syngeneic rat glioma model, overall survival; format: in vivo; conditions: for Median survival: F344 rats, intracranial 9 L, PAC-1 50 mg/kg oral gavage days 0-4, TMZ 50 mg/kg oral gavage days 5-9, 8 rats per group
Description: 9 L (rat glioma) cells were intracranially implanted in rats. PAC-1 (50 mg/kg in water) was administered via oral gavage on days 0-4, and TMZ (50 mg/kg in water) was given via oral gavage on days 5-9; 8 rates per group.
The in vivo rat experiments employed 9 L cells, a very aggressive tumor model, implanted inter-cranially in rats in 3 treatment groups (PAC-1 alone, TMZ alone, and the combination of PAC-1 and TMZ) and one control group.
PAC-1 was suspended in water, and given to the rats via oral gavage at 50 mg/kg (a relatively low dose) for 5 days followed by five days of TMZ dosing.
PAC-1 (50 mg/kg in water) was administered via oral gavage on days 0-4, and TMZ (50 mg/kg in H2O) was given via oral gavage on days 5-9.
9 L gliosarcoma was maintained as a solid subcutaneous mass in the flanks of F344 rats. For intracranial implantation, the 9 L gliosarcoma tumor was surgically excised from the carrier animal and sliced into 1 mm^3 pieces at the time of implantation.
The animals were divided into the following four experimental groups with eight animals per group: (1) Control, (2) PAC-1 alone, (3) TMZ alone, and (4) PAC-1+TMZ. The control animals only received water. Two groups of animals from PAC-1 alone and PAC-1+TMZ received an oral gavage of PAC-1 suspended in water starting day 0 six hours post implantation. PAC-1 was administered only for 5 days from day 0 to day 4. The animals from TMZ alone and PAC-1+TMZ groups received 5 doses of TMZ in water administered orally from day 5 to day 9.

9 L cell line = experiment: IC50 of PAC-1 with the 9 L cell line; format: cell-based; conditions: Rattus norvegicus; 72 hour experiment; initial assessment
Description: The initial assessment for the IC50 for PAC-1 with the 9 L cell line is about 7 μM (72 hour experiment).

K7M2 cells = experiment: Mouse model of metastatic osteosarcoma, survival; format: in vivo; conditions: oral PAC-1 100 mg/kg in HPβCD and TMZ 50 mg/kg, sequential, daily for five consecutive days, from seven days after K7M2 injection; n=8 mice per group
Description: FIG. 4. PAC-1 synergizes with TMZ to extend survival in a mouse model of metastatic osteosarcoma. Seven days after injection of K7M2 cells, mice were treated orally with PAC-1 (100 mg/kg in HPβCD), TMZ (50 mg/kg […]), or a sequential treatment with each, daily for five consecutive days; n=8 mice per group.

[1] = Neurotoxicity of oral PAC-1 in mice; format: in vivo; conditions: given orally at up to 200 mg/kg

Row | SMILES | Median survival (9 L (rat glioma) cells) [days] | Neurotoxicity (9 L (rat glioma) cells; rats, PAC-1 50 mg/kg oral gavage for 5 days followed by five days of TMZ dosing) | IC50 (9 L cell line) [µM] | Synergy with TMZ to extend survival (K7M2 cells) | Neurotoxicity [1]
1 | C=CCc1cccc(/C=N/NC(=O)CN2CCN(Cc3ccccc3)CC2)c1O [PAC-1, 2-(4-benzylpiperazin-1-yl)-N-[(2-hydroxy-3-prop-2-enyl-phenyl)methylideneamino]acetamide] | 13.5 | no neurotoxicity was observed | ~7 | synergizes | No neurotoxicity was observed
2 | Cn1nnc2c(C(N)=O)ncn2c1=O [TMZ, Temozolomide, reference compound] | 20 |  |  |  | 
